Source: patent US8399005B2, “Use of nitric oxide to enhance the efficacy of silver and other topical wound care agents” (University of North Carolina at Chapel Hill, priority 2007, dated 2013)

Assays:
P. aeruginosa [1] = assay: Bactericidal assays under static conditions (PBS); assay type: cell-based
Protocol: Bactericidal assays under static conditions. […] Silica nanoparticles (NO-releasing and control), PROLI/NO, and proline were added to separate aliquots of the bacterial suspension over a concentration range optimized for each system. After 1 h incubation at 37° C. with gentle agitation, 100-μL aliquots from each suspension were plated on tryptic soy agar. After overnight incubation at 37° C., the colonies on each plate were counted, allowing for calculation of the number of viable P. aeruginosa cells in each vial at the time of plating.

L929 cells = assay: L929 propidium iodide (PI) viability assay (Example 1); assay type: cell-based, mouse; conditions: 2 mg/mL, L929, KRH buffer
Protocol: [formula] L929 propidium iodide (PI) viability assay. L929 cells were plated on 24-well tissue culture treated dishes (BD Bioscience #353047) at a density of 3.0×10^5 cells/ml (150×10^3 cells/well) and incubated overnight at 37° C., in 5% CO2/95% air for 18-20 h. For the PI assay, the incubation buffer was aspirated from each of the wells and replaced with 500 μL of Krebs-Ringer-HEPES (KRH) buffer containing (mM): 115 NaCl, 5 KCl, 1 CaCl2, 1 KH2PO4, 1.2 MgSO4, 25 HEPES, pH 7.4, supplemented with 30 μM of PI. The fluorescence of the cells was determined in a concentration-dependent manner against both proli/NO and proline, as monitored using a FluoStar Galaxy plate reader (BMG Labtech, Durham, N.C.) with excitation and emission filters set at 544 and 640 nm, respectively. Fluorescence was acquired at 0 and 60 min. An additional 20 min incubation of cells with 40 μM digitonin was required to completely permeabilize plasma membranes and achieve maximum PI fluorescence. Cell viability was represented as an increase in PI fluorescence from each well expressed as percentage of the maximum fluorescence obtained in cells treated with digitonin (100% cell death). S. aureus cytotoxicity assay in PBS. […] Toxicity was measured by aliquoting this bacterial solution into eppendorf tubes containing proli/NO, incubating these solutions for one hour at 37° C., and then plating them on TSA plates. […]

S. aureus [2] = conditions: TSB
Protocol: (§1) Determining the Minimum Bactericidal Concentration (MBC120). […] This value, the MBC120, was acquired by growing S. aureus to an OD600=0.075 in TSB. At this value the concentration was determined to be 10^8 CFUs/mL. In order to achieve a final bacterial concentration of 10^4, four ten-fold dilutions were performed in TSB. […] For proli/NO, 1 mL of 2×10^4 CFUs/mL bacterial solution was added to various masses (0.5-16 mg). […] The plates were incubated overnight at 37° C. and enumerated. The graphs present the total CFUs present in each tube as determined by counting each colony and multiplying that number by 100 to account for both 10-fold dilutions. Determination of Fractional Bactericidal Concentration (FBC120). […] S. aureus was cultured to a concentration of 10^8 CFUs/mL and the concentration was adjusted to 2×10^4 CFUs/mL in TSB. […] After incubating the plates overnight at 37° C., viability was determined by counting the number of distinct colonies on each plate and multiplying this number by 100 to account for the two 10-fold dilutions. The numerical value of the FBC120 was obtained according to the equation:

[3] = assay type: physicochemical
Protocol: We synthesized proli/NO by subjecting a 2:1 molar ratio of sodium methoxide in methanol and proline to 5 atm of NO for 3 days. To the resulting solution excess diethyl ether was added. After vacuum removal of solvent a white solid was obtained. Its NO release was monitored using chemiluminescence; we determined that proli/NO releases a total of 1.8 μmol NO/mg in less than 70 s when exposed to PBS at pH 7.4. Release is initiated quickly by protonation of proline's cyclic amine or slowly by thermal degradation. In the MBC120 determination, proli/NO was kept on ice until exposure to bacterial solution to prevent thermal NO release. Proli/NO's MBC120 is 16 mg/mL against S. aureus. […] See Turner, T. D., et al., J Pharm. Pharmacol. 41, 775-80 (1989). […] Synergy is determined based on inhibition beyond what would be expected for each alone. […] More specifically, the MBC was used instead of the MIC, once again because we are interested in reducing a bacterium's chances of becoming resistant to the drug employed by developing conditions that will lead to a quick kill. Additionally, reducing the bacterial burden in wound beds quickly is paramount to prevent infections. […] See Feng Q. L. et al., J. Biomed. Mater. Res. 52, 662-668 (2000).
Nitric oxide release measurements. Nitric oxide release from both the diazeniumdiolate-modified silica nanoparticles and PROLI/NO was measured in deoxygenated phosphate-buffered saline (PBS, 0.01 M; 37° C.) at pH 7.4 using a Sievers NOA 280i chemiluminescence NO analyzer (Boulder, Colo.). Nitric oxide released from the donors was transported to the analyzer by a stream of N2 (70 mL·min^−1) passed through the reaction cell. The instrument was calibrated with air passed through a NO zero filter (0 ppm NO) and a 24.1 ppm NO standard gas (balance N2).

S. aureus [4] = assay: Fractional bactericidal concentration (FBC120) time-based synergistic killing assay in TSB; assay type: cell-based
Protocol: as §1

P. aeruginosa cells = assay: Confocal microscopy with DAF-2 DA NO probe and propidium iodide; assay type: cell-based
Source text: Once inside the bacterial cell membrane, the DAF-2 DA probe is hydrolyzed to DAF-2, which is membrane-impermeable. […] Cells loaded with DAF-2 were imaged in the presence of propidium iodide (PI), which is a nucleic acid viability dye that only enters cells with compromised membranes, and fluoresces red once inside the cells. Thus, red fluorescence is indicative of cell death. […] After a peak intracellular intensity of DAF-2 fluorescence was reached, the red fluorescence of the PI began to increase, indicating entry of the PI into the cells due to membrane disruption and cell death.

P. aeruginosa [5] = assay: Time-based bactericidal assays under nutrient growth conditions (TSB); assay type: cell-based; set-up: amount of NO per mL required for complete bacterial killing: unit not given here
Protocol: Time-based bactericidal assays under nutrient growth conditions. To test the temporal efficacy of the NO-releasing silica nanoparticles, time-based antibacterial assays were conducted in TSB nutrient media. P. aeruginosa was cultured in TSB to a concentration of 10^8 CFU·mL^−/1 and diluted to 10^4 CFU·mL^−1 in additional TSB. […] Bacterial viability was determined as described above after incubating the plates overnight at 37° C.

mammalian cells = conditions: 200 ppm for 4 hours; cited from earlier work
[6] = amount of NO equal to 100 μg·mL^−1 nanoparticles

With `NCCNCCN` [diethylenetriamine backbone, diethylenetriamine] the “toxicity of backbone alone to P. aeruginosa” value (P. aeruginosa [1]; data not shown) was “considerable toxicity”.

For `O=C([O-])C1CCCN1[N+]([O-])=N[O-].[Na+].[Na+]` (stereo not shown) [proli/NO], the “toxicity to dermal fibroblasts” value (L929 cells) was “non-toxic”, the “MBC120 (concentration for three logs of killing within 120 min)” value (S. aureus [2]) was 16 mg/mL and the “amount of NO required per mL for a 3 log reduction in bacterial viability” value (P. aeruginosa [1]; PBS, 1 h) was 4.5 μmol NO. The “concentration completely bactericidal (3 logs of killing)” value (P. aeruginosa [1]; PBS, 1 h) was 2.5 mg·mL^−1, the “mass required relative to silica nanoparticles for complete killing” value (P. aeruginosa [1]; PBS, by mass) was “approximately 35 times” and the “time in which the total NO is released” value ([3]; PBS at pH 7.4 (Example 1)) was “less than 70 s”. The “total NO released” value ([3]; PBS at pH 7.4 (Example 1)) was 1.8 μmol NO/mg, the “total amount of NO released (t[NO])” value ([3]; PBS pH 7.4, 37° C. (Example 2)) was 1.8 μmol NO·mg^−1 and the “time required to reach the maximum NO flux (tm)” value ([3]; after immersion in / addition to buffer) was “approximately 1 min”. The “maximum NO flux ([NO]m)” value ([3]; not told, pH 7.4) was over 145000 ppb·mg^−1, the “NO release half life (t1/2)” value ([3]; pH 7.4) was under 2 min and the “toxicity to S. aureus, agent alone” value (S. aureus [4]; 8 mg/mL proli/NO alone) was “non-toxic”. For the same compound, the “fraction of MBC120 used in the combination” value (S. aureus [4]; 2/16 mg/mL proli/NO, 21.9/[…] AgSD) was 0.125, the “P. aeruginosa cell death (PI fluorescence)” value (P. aeruginosa cells; 5 mg·mL^−1) was “rapid cell death” and the “intracellular DAF-2 fluorescence prior to cell death” value (P. aeruginosa cells; 5 mg·mL^−1) was “still not observed”. The “P. aeruginosa cell death (PI fluorescence)” value (P. aeruginosa cells; [6]) was “cell death was not observed”, the “intracellular DAF-2 fluorescence” value (P. aeruginosa cells; [6]) was “no intracellular DAF-2 fluorescence was observed” and the “time to complete killing” value (P. aeruginosa [5]; 12 mg·mL^−1, TSB) was 30 min. For the same compound, the “time of bacterial killing” value (P. aeruginosa [5]; 12 and 20 mg·mL^−1, TSB) was under 30 min and the “amount of NO per mL required for complete bacterial killing” value (P. aeruginosa [5]; TSB) was 21.6.

In the case of `O=C(O)[C@@H]1CCCN1` [proline], the “killing of P. aeruginosa by controls depleted of NO” value (P. aeruginosa [1]; over the concentration ranges tested) is reported as “no killing”, the “toxicity to P. aeruginosa” value (P. aeruginosa [1]; up to 20 mg·mL^−1, the highest concentrations tested) is reported as “no toxicity” and the “growth of P. aeruginosa exposed to control solutions” value (P. aeruginosa [5]; TSB, 2 h) is reported as “proliferated”.

In the case of nitric oxide [NO gas], the “toxicity to mammalian cells” value (mammalian cells) is given as “not toxic”.
